US10647694B2, “Diphenylaminopyrimidine and triazine compound, and pharmaceutical composition and use thereof” (ARROMAX PHARMATECH CO., LTD., priority 2016, dated 2020)

These molecules were tested against ALK enzyme (Homo sapiens, UniProt Q9UM73) (assay: In-vitro ALK kinase inhibitory activity (HTRF kinEASE TK kit)). Conditions: inhibitory activity for ALK enzyme, read-out: IC50 range.
Assay type: biochemical
Procedure: Anaplastic Lymphoma Kinase (ALK) Inhibitory Activity The in-vitro kinase assay was performed using the HTRF kinEASE TK kit available from Cisbio. The operation steps are indicated in the instructions of the kit. This method was used to detect the inhibitory effect of the compound to be tested on the activity of ALK enzymes in vitro, including wild-type ALK (Cat.PV3867, Invitrogen), ALK L1196M (Cat. PV6168, Life technologies), and ALK F1174L (Cat. PV6160, Life technologies). The specific operation steps were as follows. […] In addition to the control wells, 4 μL of the diluted compound solution to be tested was added to the reaction wells, and 4 μL of the 2.5% DMSO solution corresponding to the ALK enzyme previously formulated was added to the control wells. (2) 2 μL of a TK-biotin substrate solution previously formulated in a substrate concentration corresponding to the ALK enzyme was added to all reaction wells. (3) 2 μL of a previously prepared enzyme solution of corresponding concentration was added to all the reaction wells except the negative wells, and 2 μL of the 1× kinase buffer corresponding to the enzyme was added to the negative wells to make up the volume. The plate was sealed with a membrane, and incubated for 10 min at room temperature after mixing uniformly, such that the compounds were bond to the enzyme fully. (4) 2 μL of an ATP solution in a concentration corresponding to the ALK enzyme was added to all the reaction wells to initiate the kinase reaction, where the enzyme reaction time by ALK was 60 minutes. (5) An ALK test solution was prepared 5 minutes before the end of the kinase reaction. Streptavidin-XL665 and TK antibody europium cryptate (1:100) solutions for assay having a concentration corresponding to the enzyme were prepared using the detection buffer in the kit. (6) After the completion of the kinase reaction, 5 μl of diluted Streptavidin-XL665 was added to all the reaction wells respectively, and mixed uniformly, and then the diluted TK antibody europium cryptate solution for assay was added immediately. (7) The plate was sealed, mixed uniformly and allowed to react at room temperature for 1 h. The fluorescence signal (excitation at 320 nm, and emission at 665 nm and 615 nm) was detected using the ENVISION instrument (Perkinelmer). The inhibition rate for each well was calculated from the values of the fully active wells and the background signal wells. The values of replicated wells were averaged, and the half-maximal inhibitory activity (IC50) of each compound to be tested was fitted with a professional drawing analysis software PRISM 5.0.

ALK enzyme, sequence (Q9UM73 19-1620 limits assumed): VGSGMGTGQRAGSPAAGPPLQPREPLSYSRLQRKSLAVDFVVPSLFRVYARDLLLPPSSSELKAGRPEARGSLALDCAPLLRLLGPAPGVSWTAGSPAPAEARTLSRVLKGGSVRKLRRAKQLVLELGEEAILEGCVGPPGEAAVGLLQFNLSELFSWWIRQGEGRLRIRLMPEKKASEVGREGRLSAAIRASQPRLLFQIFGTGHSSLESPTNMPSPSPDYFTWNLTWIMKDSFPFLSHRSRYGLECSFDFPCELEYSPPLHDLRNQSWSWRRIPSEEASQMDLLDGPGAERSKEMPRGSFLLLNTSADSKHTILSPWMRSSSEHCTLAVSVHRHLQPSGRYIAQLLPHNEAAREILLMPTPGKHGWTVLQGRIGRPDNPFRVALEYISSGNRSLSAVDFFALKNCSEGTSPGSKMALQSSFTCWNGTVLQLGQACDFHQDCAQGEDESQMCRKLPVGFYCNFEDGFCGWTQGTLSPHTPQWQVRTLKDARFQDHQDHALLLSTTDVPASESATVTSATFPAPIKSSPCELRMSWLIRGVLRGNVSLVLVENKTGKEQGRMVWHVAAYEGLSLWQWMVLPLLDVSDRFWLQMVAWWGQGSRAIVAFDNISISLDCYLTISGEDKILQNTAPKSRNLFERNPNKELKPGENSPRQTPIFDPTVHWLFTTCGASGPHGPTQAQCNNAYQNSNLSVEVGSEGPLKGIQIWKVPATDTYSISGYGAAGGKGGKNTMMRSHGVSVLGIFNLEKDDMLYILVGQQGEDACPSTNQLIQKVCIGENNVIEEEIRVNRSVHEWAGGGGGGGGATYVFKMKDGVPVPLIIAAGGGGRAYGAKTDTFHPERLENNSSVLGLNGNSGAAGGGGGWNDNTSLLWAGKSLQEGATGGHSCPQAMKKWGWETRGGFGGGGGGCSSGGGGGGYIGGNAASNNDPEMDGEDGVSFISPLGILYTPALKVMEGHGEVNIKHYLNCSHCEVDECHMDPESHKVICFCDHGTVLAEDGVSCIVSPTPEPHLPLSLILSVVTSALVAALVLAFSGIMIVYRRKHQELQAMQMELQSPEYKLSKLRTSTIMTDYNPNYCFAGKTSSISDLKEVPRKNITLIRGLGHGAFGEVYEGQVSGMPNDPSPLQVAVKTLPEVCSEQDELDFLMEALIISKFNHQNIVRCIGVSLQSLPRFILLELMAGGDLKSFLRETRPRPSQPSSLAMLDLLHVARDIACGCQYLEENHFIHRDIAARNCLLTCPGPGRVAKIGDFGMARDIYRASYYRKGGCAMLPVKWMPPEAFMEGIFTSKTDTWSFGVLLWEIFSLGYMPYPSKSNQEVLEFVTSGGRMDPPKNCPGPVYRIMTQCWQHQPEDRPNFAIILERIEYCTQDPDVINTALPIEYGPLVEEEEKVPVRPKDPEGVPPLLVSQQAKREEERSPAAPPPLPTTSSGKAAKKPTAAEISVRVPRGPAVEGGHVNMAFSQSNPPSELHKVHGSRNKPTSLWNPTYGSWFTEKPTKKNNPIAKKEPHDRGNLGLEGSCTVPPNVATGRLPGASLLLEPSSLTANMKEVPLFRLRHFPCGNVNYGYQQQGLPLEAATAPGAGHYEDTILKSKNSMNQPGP

Row | IC50 | Compound
1 | 10 to 100 nM | COc1cc(N2CCC(N3CCN(C)CC3)CC2)ccc1Nc1nc(Nc2ccccc2S(=O)(=O)C(C)C)c2[nH]ccc2n1 [Compound I-25]
2 | 10 to 100 nM | COc1cc(C2CCNCC2)c(C)cc1Nc1nc(Nc2ccccc2S(=O)(=O)C(C)C)c2[nH]ccc2n1 [Compound I-31, N4-(2-(isopropylsulfonyl)phenyl)-N2-(2-D3-methoxy-5-methyl-4-(piperidin-4-yl)phenyl)-5H-pyrrolo[3,2-d]pyrimidin-2,4-diamine]
3 | 10 to 100 nM | COc1cc(N2CCC(N3CCOCC3)CC2)ccc1Nc1nc(Nc2ccccc2S(=O)(=O)C(C)C)c2ccccc2n1 [Compound I-28, N4-(2-(isopropylsulfonyl)phenyl)-N2-(2-D3-methoxy-4-(4-morpholinopiperidin-1-yl)phenyl)quinazolin-2,4-diamine]
4 | 1 to 10 nM | COc1cc(C2CCNCC2)c(C)cc1Nc1ncc(C)c(Nc2ccccc2S(=O)(=O)C(C)C)n1 [Compound I-8, N4-(2-(isopropylsulfonyl)phenyl)-N2-(2-D3-methoxy-5-methyl-4-(piperidin-4-yl)phenyl)-5-methylpyrimidin-2,4-diamine]
5 | 1 to 10 nM | COc1cc(C2CCNCC2)c(C)cc1Nc1ncc(Cl)c(Nc2ccccc2P(C)(C)=O)n1 [Compound I-38, 5-chloro-N4-(2-(dimethylphosphoryl)phenyl)-N2-(2-D3-methoxy-5-methyl-4-(piperidin-4-yl)phenyl)pyrimidin-2,4-diamine]
6 | 1 to 10 nM | COc1cc(N2CCC(N3CCC(N)CC3)CC2)ccc1Nc1ncc(Cl)c(Nc2ccccc2S(=O)(=O)C(C)C)n1 [Compound I-34, N2-(4-(4-amino-[1,4′-bipyridin]-1′-yl)-2-D3-methoxyphenyl)-5-chloro-N4-(2-(isopropylsulfonyl)phenyl)pyrimidin-2,4-diamine]
7 | 1 to 10 nM | COc1cc(C2CCNCC2)c(F)cc1Nc1ncc(Cl)c(Nc2ccccc2S(=O)(=O)C(C)C)n1 [Compound I-21, 5-chloro-N2-(5-fluoro-2-D3-methoxy-4-(piperidin-4-yl)phenyl)-N4-(2-(isopropylsulfonyl)phenyl)pyrimidin-2,4-diamine]
8 | 1 to 10 nM | COc1cc(C2CCNCC2)c(C)cc1Nc1nccc(Nc2ccccc2S(=O)(=O)C(C)C)n1 [Compound I-1, N4-(2-(isopropylsulfonyl)phenyl)-N2-(2-D3-methoxy-5-methyl-4-(piperidin-4-yl)phenyl)pyrimidin-2,4-diamine]
9 | 1 to 10 nM | COc1cc(C2CCNCC2)c(C)cc1Nc1ncc([N+](=O)[O-])c(Nc2ccccc2S(=O)(=O)C(C)C)n1 [Compound I-10, N4-(2-(isopropylsulfonyl)phenyl)-N2-(2-D3-methoxy-5-methyl-4-(piperidin-4-yl)phenyl)-5-nitropyrimidin-2,4-diamine]
10 | 1 to 10 nM | COc1cc(N2CCC(N(C)C)CC2)ccc1Nc1ncc(Cl)c(Nc2ccccc2P(C)(C)=O)n1 [Compound I-37, (2-((5-chloro-2-((4-(4-(dimethylamino)piperidin-1-yl)-2-D3-methoxyphenyl)amino)pyrimidin-4-yl)amino)phenyl)dimethylphosphorus oxide]
11 | 1 to 10 nM | COc1cc(C2CCNCC2)ccc1Nc1ncnc(Nc2ccccc2S(=O)(=O)C(C)C)n1 [Compound I-39, N2-(2-(isopropylsulfonyl)phenyl)-N4-(2-D3-methoxy-4-(4-piperidin-4-yl)phenyl)-1,3,5-triazin-2,4-diamine]
12 | 10 to 100 nM | CCc1cc(Nc2ncc(Cl)c(Nc3ccccc3S(=O)(=O)C(C)C)n2)c(OC)cc1C1CCNCC1 [Compound 44, reference compound]
13 | 10 to 100 nM | COc1cc(N2CCC(N(C)C)CC2)ccc1Nc1nc(Nc2ccccc2S(=O)(=O)C(C)C)c2ccsc2n1 [Compound I-26, N2-(4-(4-(dimethylamino)piperidin-1-yl)-2-D3-methoxyphenyl)-N4-(2-(isopropylsulfonyl)phenyl)thieno[2,3-d]pyrimidin-2,4-diamine]
